The structures appear in SMILES notation.

Sequence of LRRK2(G2019S mutation, GST-LRRK2(amino acids 970-2527)) (Q5S007 970-2527 G2019S): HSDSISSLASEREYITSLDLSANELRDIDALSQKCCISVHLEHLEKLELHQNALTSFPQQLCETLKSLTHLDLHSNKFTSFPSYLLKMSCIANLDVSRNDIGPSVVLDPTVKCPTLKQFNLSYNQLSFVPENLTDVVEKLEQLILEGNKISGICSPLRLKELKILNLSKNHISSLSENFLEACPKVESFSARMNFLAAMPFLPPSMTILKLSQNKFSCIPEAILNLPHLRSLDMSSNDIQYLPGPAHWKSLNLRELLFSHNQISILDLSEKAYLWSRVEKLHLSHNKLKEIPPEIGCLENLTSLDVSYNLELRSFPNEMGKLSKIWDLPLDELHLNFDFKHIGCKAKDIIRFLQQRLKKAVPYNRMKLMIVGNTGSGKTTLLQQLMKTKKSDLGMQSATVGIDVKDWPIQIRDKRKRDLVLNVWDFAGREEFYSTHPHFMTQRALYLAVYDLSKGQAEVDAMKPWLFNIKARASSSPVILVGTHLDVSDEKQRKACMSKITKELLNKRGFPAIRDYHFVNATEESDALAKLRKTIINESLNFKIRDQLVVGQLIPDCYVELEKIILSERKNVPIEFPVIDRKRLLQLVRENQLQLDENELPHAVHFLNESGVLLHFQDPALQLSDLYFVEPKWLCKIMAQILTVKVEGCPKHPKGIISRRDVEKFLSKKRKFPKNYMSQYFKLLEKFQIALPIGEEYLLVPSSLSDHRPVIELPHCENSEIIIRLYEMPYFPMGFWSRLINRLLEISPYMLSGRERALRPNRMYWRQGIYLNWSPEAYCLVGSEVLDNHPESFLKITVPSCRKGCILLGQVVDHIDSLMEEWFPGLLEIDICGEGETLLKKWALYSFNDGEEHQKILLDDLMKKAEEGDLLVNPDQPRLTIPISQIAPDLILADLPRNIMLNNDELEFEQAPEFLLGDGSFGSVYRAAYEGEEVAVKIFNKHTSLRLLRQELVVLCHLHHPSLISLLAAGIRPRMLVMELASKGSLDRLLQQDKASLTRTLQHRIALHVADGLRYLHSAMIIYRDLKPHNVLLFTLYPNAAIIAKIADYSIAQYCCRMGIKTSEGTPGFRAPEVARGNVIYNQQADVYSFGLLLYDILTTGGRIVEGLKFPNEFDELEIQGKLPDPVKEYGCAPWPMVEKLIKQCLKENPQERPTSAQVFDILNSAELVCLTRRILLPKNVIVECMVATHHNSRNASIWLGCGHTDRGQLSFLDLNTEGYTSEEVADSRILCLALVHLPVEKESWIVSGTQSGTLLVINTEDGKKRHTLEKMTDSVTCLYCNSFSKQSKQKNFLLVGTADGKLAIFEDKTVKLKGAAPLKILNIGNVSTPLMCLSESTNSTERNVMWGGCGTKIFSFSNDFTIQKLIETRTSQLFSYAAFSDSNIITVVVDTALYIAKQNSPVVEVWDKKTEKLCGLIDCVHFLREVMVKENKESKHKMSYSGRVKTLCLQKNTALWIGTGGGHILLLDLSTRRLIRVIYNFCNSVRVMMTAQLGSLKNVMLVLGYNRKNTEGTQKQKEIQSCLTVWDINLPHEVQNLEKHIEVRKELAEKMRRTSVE

For the assay, the target named is LRRK2(G2019S mutation, GST-LRRK2(amino acids 970-2527)) (Homo sapiens (Human), UniProt Q5S007, G2019S). As to the kind of experiment: LRRK2 Km ATP LanthaScreen Assay. The format is biochemical. Conditions: Km ATP (184 μM ATP solution), G2019S LRRK2, mean IC50. The procedure:
Unless otherwise noted, all LRRK2 IC50 data presented in tables refers to the LRRK2 Km ATP LanthaScreen™ Assay that is described in the Biological Assay section.
The data presented for the 5 mM and Km ATP LanthaScreen™ Assay represents mean IC50 values based on several test results and may have reasonable. deviations depending on the specific conditions and reagents used. Reagents for the LRRK2 5 mM and Km ATP LanthaScreen™ Assay were purchased from Life Technologies Corporation.
LRRK2 Km ATP LanthaScreen™ Assay
a) 400 nl of a 1:2.15 serial dilution of test compound(98 μM top assay concentration) is spotted via Labcyte Echo to certain wells in a 384 well black, untreated plate. Control wells contain 400 nl of either DMSO or 400 nl of a known inhibitor in DMSO.
b) 10 μl of a 2.5 nM LRRK2(G2019S mutation, GST-LRRK2(amino acids 970-2527)) enzyme solution in 1× assay buffer(50 mM Tris pH 8.5, 10 mM MgCl2, 0.01% Brij-35, 1 mM EGTA, 2 mM DTT, 0.05 mM NaVO4) is added to all wells.
c) A 30 minute room temperature incubation is followed by addition of 10 μl of 800 nM fluorescein labeled LRRKtide peptide substrate and 184 μM ATP solution in 1× assay buffer to all wells.
d) After a 60 minute room temperature incubation, 20 μl of TR-FRET Dilution Buffer(Invitrogen PV3756B) containing 4 nM Tb-labeled anti-phospho LRRKtide antibody and 20 mM EDTA is added to all wells.
e) Plates are incubated at room temperature for 1 hour and read on an Envision™ multi-mode plate reader with LanthaScreen™ settings. Results are analysed using Assay Data Analyzer.
Background: TR-FRET usually uses a lanthanide donor and a delayed reading to cut background.
As a reminder, the IC50 is the concentration that inhibits the measured activity by half. `CS(=O)(=O)N1CCN(c2cc(-c3n[nH]c4ccc(-c5cnccn5)cc34)ncn2)CC1` [Example I2] gave an IC50 of 0.0192 µM.
`CC(C)Oc1ccc2[nH]nc(-c3cc(N4CCC(O)CC4)ncn3)c2c1` [Example J1]: the IC50 came out at 0.0059 µM.
Consider `CC(C)Oc1ccc2[nH]nc(-c3cc(N4CCN(CCO)CC4)ncn3)c2c1` [Example J2], for which the half-maximal inhibitory concentration (IC50) turned out to be 0.0074 µM.
For `CC(C)Oc1ccc2[nH]nc(-c3cc(N4CCCCC4)ncn3)c2c1` [Example J3] the value was 0.0106 µM; for `CC(C)Oc1ccc2[nH]nc(-c3cc(N4CCC4)ncn3)c2c1` [Example J4], 0.0079 µM; for `CC(C)Oc1ccc2[nH]nc(-c3cc(N4CCCC4)ncn3)c2c1` [Example J5], 0.0139 µM.
Consider `CC(C)Oc1ccc2[nH]nc(-c3cc(N4C[C@@H](C)O[C@@H](C)C4)ncn3)c2c1` [Example J6], for which half-maximal inhibition (IC50) was put at 0.0078 µM. Compared with the last compound, the IC50 is about 1.8-fold lower.
For `CC(C)Oc1ccc2[nH]nc(-c3cc(N4C[C@H](O)[C@@H](N(C)C)C4)ncn3)c2c1` [Example J7] the value was 0.0153 µM.
`CO[C@H]1CN(c2cc(-c3n[nH]c4ccc(OC(C)C)cc34)ncn2)C[C@@H]1O` [Example J8] came in with an IC50 of 0.0186 µM.
As for `CC(C)Oc1ccc2[nH]nc(-c3cc(N4CCO[C@H](C)C4)ncn3)c2c1` [Example J9], it took 0.0092 µM to reach half-maximal inhibition (IC50). This IC50 lies about 2-fold lower than the previous one.
For `CC(C)Oc1ccc2[nH]nc(-c3cc(N4C[C@H](F)[C@@H](F)C4)ncn3)c2c1` [Example J10] the value was 0.0111 µM.
The figure for `CC(C)Oc1ccc2[nH]nc(-c3cc(N4CCCN(S(C)(=O)=O)CC4)ncn3)c2c1` [Example J11] is 0.0513 µM; for `CC(C)Oc1ccc2[nH]nc(-c3cc(N4CC(n5cccn5)C4)ncn3)c2c1` [Example J12] it is 0.0226 µM.
For `CC(C)Oc1ccc2[nH]nc(-c3cc(N4CC[S+]([O-])CC4)ncn3)c2c1` [Example J13] the value was 0.021 µM.
On to `CC(C)Oc1ccc2[nH]nc(-c3cc(N4CCc5oc(C6CC6)nc5C4)ncn3)c2c1` [Example J14], for which the IC50 was determined as 0.0301 µM.
`CC(C)Oc1ccc2[nH]nc(-c3cc(N4CCC(F)(F)CC4)ncn3)c2c1` [Example J15] gave an IC50 of 0.0202 µM.
The figure for `CC(C)Oc1ccc2[nH]nc(-c3cc(N4CC(S(C)(=O)=O)C4)ncn3)c2c1` [Example J16] is 0.0133 µM; for `CC(C)Oc1ccc2[nH]nc(-c3cc(N4CCN(C)CC4)ncn3)c2c1` [Example J17] it is 0.0054 µM.
For `CC(C)Oc1ccc2[nH]nc(-c3cc(N4CC(F)(F)C4)ncn3)c2c1` [Example J18] the value was 0.0243 µM; for `CCc1nnc2n1CCN(c1cc(-c3n[nH]c4ccc(OC(C)C)cc34)ncn1)C2` [Example J19], 0.0086 µM.
For `CC(C)Oc1ccc2[nH]nc(-c3cc(N4CCc5nc(C6CC6)oc5C4)ncn3)c2c1` [Example J20] the value was 0.043 µM; for `CC(C)Oc1ccc2[nH]nc(-c3cc(N4CCN(c5nnc(C6CC6)o5)CC4)ncn3)c2c1` [Example J21], 0.014 µM.
Regarding `Cc1noc(C2CN(c3cc(-c4n[nH]c5ccc(OC(C)C)cc45)ncn3)C2)n1` [Example J22], the IC50 came to 0.0093 µM.
For `CC(C)Oc1ccc2[nH]nc(-c3cc(N4CC(n5cnnc5)C4)ncn3)c2c1` [Example J23] the value was 0.0201 µM; for `CC(C)Oc1ccc2[nH]nc(-c3cc(N4CCN(c5ccncn5)CC4)ncn3)c2c1` [Example J24], 0.0158 µM.
For `CC(C)Oc1ccc2[nH]nc(-c3cc(N4CC[C@@H](F)C4)ncn3)c2c1` [Example J25] the value was 0.0087 µM; for `CC(C)Oc1ccc2[nH]nc(-c3cc(N4CC[C@H](F)C4)ncn3)c2c1` [Example J26], 0.0095 µM.
For `CC(C)NC(=O)CN1CCN(c2cc(-c3n[nH]c4ccc(OC(C)C)cc34)ncn2)CC1` [Example K1] the value was 0.0051 µM; for `CC(C)Oc1ccc2[nH]nc(-c3cc(N4CCN(C(=O)c5ccco5)CC4)ncn3)c2c1` [Example K2], 0.0087 µM.
The compound `CCN1CCN(c2cc(-c3n[nH]c4ccc(OC(C)C)cc34)ncn2)CC1` [Example K3] came in with an IC50 of 0.006 µM.
The figure for `COC1CCCN(c2cc(-c3n[nH]c4ccc(OC(C)C)cc34)ncn2)C1` (centres unmarked) [Example K4] is 0.0127 µM.
The figure for `CC(=O)N1CCN(c2cc(-c3n[nH]c4ccc(OC(C)C)cc34)ncn2)CC1` [Example K5] is 0.0112 µM; for `CC(C)Oc1ccc2[nH]nc(-c3cc(N4CCN(C(=O)C5CCCO5)CC4)ncn3)c2c1` (centres unmarked) [Example K6] it is 0.0581 µM.
For `CC(C)Oc1ccc2[nH]nc(-c3cc(N4CCN(c5ncccn5)CC4)ncn3)c2c1` [Example K7] the value was 0.0118 µM; for `CC(C)Oc1ccc2[nH]nc(-c3cc(N4CCC(C#N)CC4)ncn3)c2c1` [Example K8], 0.0072 µM.
The compound `COC(=O)N1CCN(c2cc(-c3n[nH]c4ccc(OC(C)C)cc34)ncn2)CC1` [Example K9] displayed an IC50 of 0.0102 µM.
For `CC(C)Oc1ccc2[nH]nc(-c3cc(N4CCC(n5ccnc5)C4)ncn3)c2c1` (centres unmarked) [Example K11] the value was 0.0113 µM; for `CC(C)Oc1ccc2[nH]nc(-c3cc(N4CCC(O)(C(F)(F)F)CC4)ncn3)c2c1` [Example K12], 0.0105 µM.
As for `CC(C)Oc1ccc2[nH]nc(-c3cc(N4CCCC(C(C)(C)O)C4)ncn3)c2c1` (centres unmarked) [Example K13], the IC50 stood at 0.0069 µM.
Take `CC(C)Oc1ccc2[nH]nc(-c3cc(N4CCC(n5cccn5)CC4)ncn3)c2c1` [Example K14]: the IC50 amounted to 0.0153 µM.
`CC(C)Oc1ccc2[nH]nc(-c3cc(N4CCC(CF)C4)ncn3)c2c1` (centres unmarked) [Example K15]: the IC50 turned out to be 0.0069 µM. Against the preceding compound, the IC50 is about 2.2-fold lower.
In turn, `CC(C)Oc1ccc2[nH]nc(-c3cc(N4CCN(Cc5ccncc5)CC4)ncn3)c2c1` [Example K16] came in with an IC50 of 0.0082 µM. This IC50 and that of the compound before are within 1.5-fold of each other.
Consider `CC(C)Oc1ccc2[nH]nc(-c3cc(N4CCN(c5cnn(C)c5)CC4)ncn3)c2c1` [Example K17], for which 0.0054 µM corresponded to half-maximal inhibition (IC50). Compared with the last compound, the IC50 is about 1.5-fold lower.
For `CC(C)Oc1ccc2[nH]nc(-c3cc(N4CCC(C(C)(C)O)CC4)ncn3)c2c1` [Example K18] the value was 0.0054 µM; for `CC(C)Oc1ccc2[nH]nc(-c3cc(N4CCn5nc(C6CC6)nc5C4)ncn3)c2c1` [Example K19], 0.0182 µM; for `CC(C)Oc1ccc2[nH]nc(-c3cc(N4CCC(F)(CO)CC4)ncn3)c2c1` [Example K20], 0.0063 µM.
As to `CC(C)Oc1ccc2[nH]nc(-c3cc(N4CCN(c5nncs5)CC4)ncn3)c2c1` [Example K21], the half-inhibitory concentration (IC50) was 0.017 µM.
The figure for `Cn1cc(-c2cc3c(-c4cc(N5CCn6ncnc6C5)ncn4)n[nH]c3cc2F)cn1` [Example L1] is 0.0639 µM.
For `Cn1cc(-c2cc3c(-c4cc(N5CC[C@H](CF)C5)ncn4)n[nH]c3cc2F)cn1` [Example L2] the value was 0.0136 µM; for `Cn1cc(-c2cc3c(-c4cc(N5CCCC(F)(F)C5)ncn4)n[nH]c3cc2F)cn1` [Example L3], 0.0234 µM.
For `Cn1cc(-c2cc3c(-c4cc(N5CC[C@@H](CO)C5)ncn4)n[nH]c3cc2F)cn1` [Example L4] the value was 0.0368 µM; for `Cn1cc(-c2cc3c(-c4cc(N5CC[C@H](CO)C5)ncn4)n[nH]c3cc2F)cn1` [Example L5], 0.037 µM; for `Cn1cc(-c2cc3c(-c4cc(N5CCC(F)(F)C5)ncn4)n[nH]c3cc2F)cn1` [Example L6], 0.0709 µM.
Compound `Cn1cc(-c2cc3c(-c4cc(N5CCCC(C)(O)C5)ncn4)n[nH]c3cc2F)cn1` (centres unmarked) [Example L7] registered an IC50 of 0.0675 µM.
Take `Cn1cc(-c2cc3c(-c4cc(N5CC[S+]([O-])CC5)ncn4)n[nH]c3cc2F)cn1` [Example L8]: the IC50 worked out at 0.131 µM.
The figure for `CN1CCN(c2cc(-c3n[nH]c4cc(F)c(-c5cnn(C)c5)cc34)ncn2)CC1=O` [Example L9] is 0.0377 µM; for `Cn1cc(-c2cc3c(-c4cc(N5CCc6oncc6C5)ncn4)n[nH]c3cc2F)cn1` [Example L10] it is 0.453 µM.
The figure for `Cn1cc(-c2cc3c(-c4cc(N5CCN(C6CC6)CC5)ncn4)n[nH]c3cc2F)cn1` [Example L11] is 0.0177 µM; for `C[C@H]1CN(c2cc(-c3n[nH]c4cc(F)c(-c5cnn(C)c5)cc34)ncn2)CCO1` [Example L12] it is 0.0265 µM; for `C[C@@H]1CN(c2cc(-c3n[nH]c4cc(F)c(-c5cnn(C)c5)cc34)ncn2)CCO1` [Example L13] it is 0.0205 µM.
The figure for `Cn1cc(-c2cc3c(-c4cc(N5C[C@@H](F)[C@H](F)C5)ncn4)n[nH]c3cc2F)cn1` [Example L14] is 0.0299 µM.
Compound `Cn1cc(-c2cc3c(-c4cc(N5CCCC6(CCO6)C5)ncn4)n[nH]c3cc2F)cn1` (centres unmarked) [Example L15] showed an IC50 of 0.398 µM.
In turn, `Cn1cc(-c2cc3c(-c4cc(N5CCC(n6cccn6)C5)ncn4)n[nH]c3cc2F)cn1` (centres unmarked) [Example L16] returned an IC50 of 0.0735 µM.
`Cc1nc2c(o1)CCN(c1cc(-c3n[nH]c4cc(F)c(-c5cnn(C)c5)cc34)ncn1)C2` [Example L17] returned an IC50 of 0.0534 µM.
The figure for `Cn1cc(-c2cc3c(-c4cc(N5CCN6C(=O)OCC6C5)ncn4)n[nH]c3cc2F)cn1` (centres unmarked) [Example L18] is 0.0642 µM.

For the origin of these results see patent US9416126B2, “Compounds inhibiting leucine-rich repeat kinase enzyme activity” (Merck Sharp & Dohme Corp., priority 2013, dated 2016).
